Measurements from patent US20240360178A1, “MACROCYCLIC IMMUNOMODULATORS” (Bristol-Myers Squibb Company, priority 2021, published 2024).
Positions of bridges follow the written chain, without caps; N, C: chain ends. Non-standard residues stand in square brackets, D forms with d. Residues, ends and D or L forms follow the SMILES beside them. ξ: configuration not given here. *: point of attachment. Bip = N[C@@H](Cc1ccc(-c2ccccc2)cc1)C(=O)O; dPro(4S-NH2) = N[C@@H]1CN[C@@H](C(=O)O)C1; Phe(3-OMe) = COc1cccc(C[C@H](N)C(=O)O)c1; NMeF = CN[C@@H](Cc1ccccc1)C(=O)O; 3Pal = N[C@@H](Cc1cccnc1)C(=O)O; 4Pal = N[C@@H](Cc1ccncc1)C(=O)O; Cha = N[C@@H](CC1CCCCC1)C(=O)O; Cit = NC(=O)NCCC[C@H](N)C(=O)O; NMeS = CN[C@@H](CO)C(=O)O; Carboxymethyl = O=C(O)C*; NMeA = CN[C@@H](C)C(=O)O; Orn = NCCC[C@H](N)C(=O)O; Dab = NCC[C@H](N)C(=O)O; Dap = NC[C@H](N)C(=O)O; ξS = NC(CO)C(=O)O; Sar = CNCC(=O)O

Target: T1, human PD-1 (Jurkat-PD-1 cells) / PE-labeled human PD-L1-Ig (Homo sapiens, UniProt Q15116)
T1 construct: expressed in transfected cells; host or cells: Jurkat cell line over-expressing human PD-1
T1 sequence (Q15116 25-288): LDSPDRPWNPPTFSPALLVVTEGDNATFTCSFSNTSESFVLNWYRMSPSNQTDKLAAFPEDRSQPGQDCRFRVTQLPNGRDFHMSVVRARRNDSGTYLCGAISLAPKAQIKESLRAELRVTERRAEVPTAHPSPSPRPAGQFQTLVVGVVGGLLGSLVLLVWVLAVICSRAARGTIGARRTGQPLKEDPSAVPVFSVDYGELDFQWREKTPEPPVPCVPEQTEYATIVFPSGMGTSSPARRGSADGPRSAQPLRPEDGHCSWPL
Assay: Jurkat-PD-1 Cell Binding High-Content Screening Assay (CBA); Jurkat hPD1-PDL1 assay
Conditions: Jurkat cell line over-expressing human PD-1; PE-labeled PD-L1-Ig 20 nM final; compound incubated 2 hours at 37° C.; read-out: Jurkat HPD1-PDL1 IC50
Procedure, shortened: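 Jurkat-hPD-1 cells; cpd 2 h, 37° C; then PE-PD-L1-Ig 20 nM final in DMEM/10% FCS; high-content imaging read-out.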

SMILES | IC50 [nM]
CC(C)C[C@@H]1NC(=O)[C@H](Cc2c[nH]c3ccccc23)NC(=O)[C@H](CC(=O)O)NC(=O)[C@H](Cc2ccc(O)cc2)NC(=O)[C@H](Cc2ccncc2)NC(=O)CSC[C@@H](C(=O)NCC(N)=O)NC(=O)[C@H](CO)NC(=O)[C@H](C(C)C)NC(=O)[C@H](CC(C)C)NC(=O)[C@H](CC(N)=O)NC(=O)CN(C)C(=O)[C@H](C)N(C)C(=O)[C@H](C(C)C)NC(=O)[C@H](Cc2ccc(-c3ccccc3)cc2)NC1=O [Example 1107] ({CH2CO}-[4Pal]YDWL[Bip]V[NMeA][Sar]NLVSCG-NH2; thioether N-14) | 340
CC(C)C[C@@H]1NC(=O)CSC[C@@H](C(=O)NCC(N)=O)NC(=O)[C@H](CO)NC(=O)[C@H](C(C)C)NC(=O)[C@H](CC(C)C)NC(=O)[C@H](CCCNC(=N)N)NC(=O)[C@H](Cc2ccccc2)N(C)C(=O)[C@H](C)N(C)C(=O)[C@H](CCC(=O)O)NC(=O)[C@H](Cc2ccc(-c3ccccc3)cc2)NC(=O)[C@H](C(C)C)NC(=O)[C@H](Cc2c[nH]c3ccccc23)NC(=O)[C@H](CC(=O)O)NC(=O)[C@H](Cc2ccc(O)cc2)NC1=O [Example 1287] ({CH2CO}-LYDWV[Bip]E[NMeA][NMeF]RLVSCG-NH2; thioether N-14) | 130
CC(C)C[C@@H]1NC(=O)[C@H](C)NC(=O)CN(C)C(=O)[C@H](C)N(C)C(=O)[C@H](C(C)C)NC(=O)[C@H](Cc2ccc(-c3ccccc3)cc2)NC(=O)[C@H](CC(C)C)NC(=O)[C@H](Cc2c[nH]c3ccccc23)NC(=O)[C@H](CC(=O)O)NC(=O)[C@H](Cc2ccc(O)cc2)NC(=O)[C@H](Cc2ccccc2)NC(=O)CSC[C@@H](C(=O)N[C@@H](C)C(N)=O)NC(=O)[C@H](CO)NC(=O)[C@H](C(C)C)NC1=O [Example 1158] ({CH2CO}-FYDWL[Bip]V[NMeA][Sar]ALVSCA-NH2; thioether N-14) | 840
CC(C)C[C@@H]1NC(=O)[C@H](CC(N)=O)NC(=O)CN(C)C(=O)[C@H](C)N(C)C(=O)[C@H](C(C)C)NC(=O)[C@H](Cc2ccc(-c3ccccc3)cc2)NC(=O)[C@H](C(C)C)NC(=O)[C@H](Cc2c[nH]c3ccccc23)NC(=O)[C@H](CC(=O)O)NC(=O)[C@H](Cc2ccc(O)cc2)NC(=O)[C@H](Cc2ccccc2)NC(=O)CSC[C@@H](C(=O)N[C@@H](C)C(N)=O)NC(=O)[C@H](CO)NC(=O)[C@H](C(C)C)NC1=O [Example 1149] ({CH2CO}-FYDWV[Bip]V[NMeA][Sar]NLVSCA-NH2; thioether N-14) | 690
CC(C)C[C@@H]1NC(=O)[C@H](CCCNC(=N)N)NC(=O)[C@H](Cc2ccccc2)N(C)C(=O)[C@H](C)N(C)C(=O)[C@H](CCCNC(=N)N)NC(=O)[C@H](Cc2ccc(-c3ccccc3)cc2)NC(=O)[C@H](C(C)C)NC(=O)[C@H](Cc2c[nH]c3ccccc23)NC(=O)[C@H](CC(=O)O)NC(=O)[C@H](Cc2ccc(O)cc2)NC(=O)[C@H](Cc2ccc(OCC(=O)O)cc2)NC(=O)CSC[C@@H](C(=O)NCC(N)=O)NC(=O)[C@H](CO)NC(=O)[C@H](C(C)C)NC1=O [Example 1246] ({CH2CO}-Y(Carboxymethyl)YDWV[Bip]R[NMeA][NMeF]RLVSCG-NH2; thioether N-14) | 250
CC(C)C[C@@H]1NC(=O)[C@H](Cc2c[nH]c3ccccc23)NC(=O)[C@H](CC(=O)O)NC(=O)[C@H](Cc2ccc(O)cc2)NC(=O)[C@H](Cc2ccccc2)NC(=O)CSC[C@@H](C(=O)N[C@@H](C)C(N)=O)NC(=O)[C@H](CO)NC(=O)[C@H](C(C)C)NC(=O)[C@H](CC(C)C)NC(=O)[C@H](CC(N)=O)NC(=O)[C@H]2C[C@H](N)CN2C(=O)[C@H](C)N(C)C(=O)[C@H](C(C)C)NC(=O)[C@H](Cc2ccc(-c3ccccc3)cc2)NC1=O [Example 1091] ({CH2CO}-FYDWL[Bip]V[NMeA][dPro(4S-NH2)]NLVSCA-NH2; thioether N-14) | 260
CC(C)C[C@@H]1NC(=O)[C@H](Cc2c[nH]c3ccccc23)NC(=O)[C@H](CC(=O)O)NC(=O)[C@H](Cc2ccc(O)cc2)NC(=O)[C@H](Cc2ccccc2)NC(=O)CSC[C@@H](C(=O)NCC(N)=O)NC(=O)[C@H](CO)NC(=O)[C@H](C(C)C)NC(=O)[C@H](CC(C)C)NC(=O)[C@H](CC(N)=O)NC(=O)[C@H](CO)N(C)C(=O)[C@H](C)N(C)C(=O)[C@H](C(C)C)NC(=O)[C@H](Cc2ccc(-c3ccccc3)cc2)NC1=O [Example 1084] ({CH2CO}-FYDWL[Bip]V[NMeA][NMeS]NLVSCG-NH2; thioether N-14) | 240
CC(C)C[C@@H]1NC(=O)[C@H](Cc2c[nH]c3ccccc23)NC(=O)[C@H](CC(=O)O)NC(=O)[C@H](Cc2ccc(O)cc2)NC(=O)[C@H](Cc2ccccc2)NC(=O)CSC[C@@H](C(=O)NCC(N)=O)NC(=O)[C@H](CO)NC(=O)[C@H](C(C)C)NC(=O)[C@H](CC(C)C)NC(=O)[C@H](CC(N)=O)NC(=O)[C@H]2CCCN2C(=O)[C@H](C)N(C)C(=O)[C@H](C(C)C)NC(=O)[C@H](Cc2ccc(-c3ccccc3)cc2)NC1=O [Example 1035] ({CH2CO}-FYDWL[Bip]V[NMeA][dP]NLVSCG-NH2; thioether N-14) | 60
CC(C)C[C@@H]1NC(=O)[C@H](Cc2c[nH]c3ccccc23)NC(=O)[C@H](CC(=O)O)NC(=O)[C@H](Cc2ccc(O)cc2)NC(=O)[C@H](Cc2ccccc2)NC(=O)CSC[C@@H](C(=O)NCC(N)=O)NC(=O)[C@H](CO)NC(=O)[C@H](C(C)C)NC(=O)[C@H](CC(C)C)NC(=O)[C@H](CCCCN)NC(=O)CN(C)C(=O)[C@H](C)N(C)C(=O)[C@H](C(C)C)NC(=O)[C@H](Cc2ccc(-c3ccccc3)cc2)NC1=O [Example 1051] ({CH2CO}-FYDWL[Bip]V[NMeA][Sar]KLVSCG-NH2; thioether N-14) | 110
CC(C)C[C@@H]1NC(=O)[C@H](Cc2c[nH]c3ccccc23)NC(=O)[C@H](CC(=O)O)NC(=O)[C@H](Cc2cccnc2)NC(=O)[C@H](Cc2ccccc2)NC(=O)CSC[C@@H](C(=O)N[C@@H](C)C(N)=O)NC(=O)[C@H](CO)NC(=O)[C@H](C(C)C)NC(=O)[C@H](CC(C)C)NC(=O)[C@H](CC(N)=O)NC(=O)CN(C)C(=O)[C@H](C)N(C)C(=O)[C@H](C(C)C)NC(=O)[C@H](Cc2ccc(-c3ccccc3)cc2)NC1=O [Example 1080] ({CH2CO}-F[3Pal]DWL[Bip]V[NMeA][Sar]NLVSCA-NH2; thioether N-14) | 230
CC(C)C[C@@H]1NC(=O)CSC[C@@H](C(=O)NCC(N)=O)NC(=O)[C@H](CO)NC(=O)[C@H](C(C)C)NC(=O)[C@H](CC(C)C)NC(=O)[C@H](CCCNC(=N)N)NC(=O)[C@H](Cc2ccccc2)N(C)C(=O)[C@H](C)N(C)C(=O)[C@H](CCCN)NC(=O)[C@H](Cc2ccc(-c3ccccc3)cc2)NC(=O)[C@H](C(C)C)NC(=O)[C@H](Cc2c[nH]c3ccccc23)NC(=O)[C@H](CC(=O)O)NC(=O)[C@H](Cc2ccc(O)cc2)NC1=O [Example 1290] ({CH2CO}-LYDWV[Bip][Orn][NMeA][NMeF]RLVSCG-NH2; thioether N-14) | 140

Now from value to compound:

IC50 [nM] | SMILES
90 | CC(C)[C@@H]1NC(=O)[C@H](Cc2c[nH]c3ccccc23)NC(=O)[C@H](CC(=O)O)NC(=O)[C@H](Cc2ccncc2)NC(=O)[C@H](CN)NC(=O)CSC[C@@H](C(=O)N[C@@H](C)C(N)=O)NC(=O)[C@H]([C@@H](C)O)NC(=O)[C@H](C(C)C)NC(=O)[C@H](CC2CCCCC2)NC(=O)[C@H](CCN)NC(=O)[C@H](Cc2ccccc2)N(C)C(=O)[C@H](CCCN)NC(=O)[C@H](CCC(=O)O)NC(=O)[C@H](Cc2ccc(-c3ccccc3)cc2)NC1=O [Example 1439] ({CH2CO}-[Dap][4Pal]DWV[Bip]E[Orn][NMeF][Dab][Cha]VTCA-NH2; thioether N-14)
210 | CC(C)C[C@@H]1NC(=O)[C@H](CCCN)NC(=O)[C@H](Cc2ccccc2)N(C)C(=O)[C@H](C)N(C)C(=O)[C@H](CCCNC(=N)N)NC(=O)[C@H](Cc2ccc(-c3ccccc3)cc2)NC(=O)[C@H](C(C)C)NC(=O)[C@H](Cc2c[nH]c3ccccc23)NC(=O)[C@H](CC(=O)O)NC(=O)[C@H](Cc2ccc(O)cc2)NC(=O)[C@H](Cc2ccccc2)NC(=O)CSC[C@@H](C(=O)N[C@@H](CO)C(N)=O)NC(=O)[C@H]([C@@H](C)O)NC(=O)[C@H](C(C)C)NC1=O [Example 1357] ({CH2CO}-FYDWV[Bip]R[NMeA][NMeF][Orn]LVTCS-NH2; thioether N-14)
380 | CC(C)C[C@@H]1NC(=O)[C@H](CCCNC(=N)N)NC(=O)[C@H](Cc2ccccc2)N(C)C(=O)[C@H](C)N(C)C(=O)[C@H](CCC(=O)O)NC(=O)[C@H](Cc2ccc(-c3ccccc3)cc2)NC(=O)[C@H](C(C)C)NC(=O)[C@H](Cc2c[nH]c3ccccc23)NC(=O)[C@H](CC(=O)O)NC(=O)[C@H](Cc2ccc(O)cc2)NC(=O)[C@H](Cc2ccccc2)NC(=O)CSC[C@@H](C(=O)N[C@@H](CCC(=O)O)C(N)=O)NC(=O)[C@H]([C@@H](C)O)NC(=O)[C@H](C(C)C)NC1=O [Example 1351] ({CH2CO}-FYDWV[Bip]E[NMeA][NMeF]RLVTCE-NH2; thioether N-14)
80 | COc1cccc(C[C@@H]2NC(=O)[C@H](CC(=O)O)NC(=O)[C@H](Cc3ccc(O)cc3)NC(=O)[C@H](CC(N)=O)NC(=O)CSC[C@@H](C(=O)N[C@@H](C)C(N)=O)NC(=O)[C@H]([C@@H](C)O)NC(=O)[C@H](C(C)C)NC(=O)[C@H](CC(C)C)NC(=O)[C@H](CCN)NC(=O)[C@H](Cc3ccccc3)N(C)C(=O)[C@H](C)N(C)C(=O)[C@H](CCCNC(N)=O)NC(=O)[C@H](Cc3ccc(-c4ccccc4)cc3)NC(=O)[C@H](C(C)C)NC2=O)c1 [Example 1375] ({CH2CO}-NYD[Phe(3-OMe)]V[Bip][Cit][NMeA][NMeF][Dab]LVTCA-NH2; thioether N-14)
120 | CC(C)C[C@@H]1NC(=O)[C@H](Cc2c[nH]c3ccccc23)NC(=O)[C@H](CC(=O)O)NC(=O)[C@H](Cc2ccc(O)cc2)NC(=O)[C@H](Cc2ccccc2)NC(=O)CSC[C@@H](C(=O)NCC(N)=O)NC(=O)C(CO)NC(=O)[C@H](C(C)C)NC(=O)[C@H](CC(C)C)NC(=O)[C@H](CC(N)=O)NC(=O)[C@H]2CCCN2C(=O)[C@H](CCCN)NC(=O)[C@H](C(C)C)NC(=O)[C@H](Cc2ccc(-c3ccccc3)cc2)NC1=O (stereo partly shown) [Example 1419] ({CH2CO}-FYDWL[Bip]V[Orn][dP]NLV[ξS]CG-NH2; thioether N-14)
